Experimental data taken from patent US11883526B2 (priority 2019, dated 2024).
Where two headings read alike, the source gives them in different places.

Tested on: subjects with MDD at imminent risk for suicide
Settings: 84 mg
[1] = TEAE, double-blind phase, N = 35
[2] = adverse event, follow up phase, N = 27
[3] = overall summary, double-blind phase, N = 35
[4] = serious TEAE, double-blind phase, N = 35
[5] = serious adverse event, follow up phase, N = 27

Compound: CN[C@]1(c2ccccc2Cl)CCCCC1=O [esketamine, (S)-2-(2-chlorophenyl)-2-(methylamino)cyclohexanone]
- Vertigo: no. of subjects [1]: 4
- Vision blurred: % of subjects [1]: (8.6%)
- Vision blurred: no. of subjects [1]: 3
- Vomiting: % of subjects [1]: (20.0%)
- Vomiting: no. of subjects [1]: 7
- Weight increased: % of subjects [1]: (5.7%)
- Weight increased: no. of subjects [1]: 2
- Abdominal pain: % of subjects [2]: (3.7%)
- Abdominal pain: no. of subjects [2]: 1
- Abdominal tenderness: % of subjects [2]: (3.7%)
- Abdominal tenderness: no. of subjects [2]: 1
- Aphthous ulcer: no. of subjects [2]: 0
- Back pain: % of subjects [2]: (3.7%)
- Back pain: no. of subjects [2]: 1
- Bronchitis: no. of subjects [2]: 0
- Cellulitis: no. of subjects [2]: 0
- Cogwheel rigidity: % of subjects [2]: (3.7%)
- Cogwheel rigidity: no. of subjects [2]: 1
- Contusion: % of subjects [2]: (3.7%)
- Contusion: no. of subjects [2]: 1
- Depressed mood: no. of subjects [2]: 0
- Depression: % of subjects [2]: (3.7%)
- Depression: no. of subjects [2]: 1
- Diarrhea: % of subjects [2]: (3.7%)
- Diarrhea: no. of subjects [2]: 1
- Dizziness: % of subjects [2]: (3.7%)
- Dizziness: no. of subjects [2]: 1
- Drug hypersensitivity: no. of subjects [2]: 0
- Dry mouth: % of subjects [2]: (7.4%)
- Dry mouth: no. of subjects [2]: 2
- Dysgeusia: % of subjects [2]: (3.7%)
- Dysgeusia: no. of subjects [2]: 1
- Ear and labyrinth disorders: no. of subjects [2]: 0
- Ear infection: % of subjects [2]: (3.7%)
- Ear infection: no. of subjects [2]: 1
- Epistaxis: % of subjects [2]: (3.7%)
- Epistaxis: no. of subjects [2]: 1
- Flank pain: % of subjects [2]: (3.7%)
- Flank pain: no. of subjects [2]: 1
- Folliculitis: no. of subjects [2]: 0
- Gastrointestinal disorders: % of subjects [2]: (22.2%)
- Gastrointestinal disorders: no. of subjects [2]: 6
- Headache: % of subjects [2]: (7.4%)
- Headache: no. of subjects [2]: 2
- Immune system disorders: no. of subjects [2]: 0
- Infections and infestations: % of subjects [2]: (11.1%)
- Infections and infestations: no. of subjects [2]: 3
- Influenza: no. of subjects [2]: 0
- Injury, poisoning and procedural complications: % of subjects [2]: (7.4%)
- Injury, poisoning and procedural complications: no. of subjects [2]: 2
- Insomnia: % of subjects [2]: (11.1%)
- Insomnia: no. of subjects [2]: 3
- Intentional self-injury: % of subjects [2]: (3.7%)
- Intentional self-injury: no. of subjects [2]: 1
- Loss of consciousness: % of subjects [2]: (3.7%)
- Loss of consciousness: no. of subjects [2]: 1
- Meniere's disease: no. of subjects [2]: 0
- Metabolism and nutrition disorders: no. of subjects [2]: 0
- Migraine: % of subjects [2]: (3.7%)
- Migraine: no. of subjects [2]: 1
- Musculoskeletal and connective tissue disorders: % of subjects [2]: (7.4%)
- Musculoskeletal and connective tissue disorders: no. of subjects [2]: 2
- Musculoskeletal chest pain: % of subjects [2]: (3.7%)
- Musculoskeletal chest pain: no. of subjects [2]: 1
- Musculoskeletal pain: % of subjects [2]: (3.7%)
- Musculoskeletal pain: no. of subjects [2]: 1
- Nasal congestion: % of subjects [2]: (3.7%)
- Nasal congestion: no. of subjects [2]: 1
- Nasopharyngitis: % of subjects [2]: (3.7%)
- Nasopharyngitis: no. of subjects [2]: 1
- Nausea: no. of subjects [2]: 0
- Neck pain: % of subjects [2]: (3.7%)
- Neck pain: no. of subjects [2]: 1
- Nervous system disorders: % of subjects [2]: (22.2%)
- Nervous system disorders: no. of subjects [2]: 6
- Night sweats: % of subjects [2]: (3.7%)
- Night sweats: no. of subjects [2]: 1
- Panic reaction: no. of subjects [2]: 0
- Pelvic pain: % of subjects [2]: (3.7%)
- Pelvic pain: no. of subjects [2]: 1
- Pharyngitis: % of subjects [2]: (7.4%)
- Pharyngitis: no. of subjects [2]: 2
- Polydipsia: no. of subjects [2]: 0
- Procedural pain: no. of subjects [2]: 0
- Psychiatric disorders: % of subjects [2]: (18.5%)
- Psychiatric disorders: no. of subjects [2]: 5
- Rash: no. of subjects [2]: 0
- Renal and urinary disorders: no. of subjects [2]: 0
- Renal failure: no. of subjects [2]: 0
- Reproductive system and breast disorders: % of subjects [2]: (3.7%)
- Reproductive system and breast disorders: no. of subjects [2]: 1
- Respiratory, thoracic and mediastinal disorders: % of subjects [2]: (7.4%)
- Respiratory, thoracic and mediastinal disorders: no. of subjects [2]: 2
- Restlessness: % of subjects [2]: (3.7%)
- Restlessness: no. of subjects [2]: 1
- Road traffic accident: % of subjects [2]: (3.7%)
- Road traffic accident: no. of subjects [2]: 1
- Sedation: % of subjects [2]: (3.7%)
- Sedation: no. of subjects [2]: 1
- Self-injurious ideation: no. of subjects [2]: 0
- Sexual dysfunction: no. of subjects [2]: 0
- Skin and subcutaneous tissue disorders: % of subjects [2]: (3.7%)
- Skin and subcutaneous tissue disorders: no. of subjects [2]: 1
- Somnolence: no. of subjects [2]: 0
- Suicidal ideation: % of subjects [2]: (3.7%)
- Suicidal ideation: no. of subjects [2]: 1
- Suicide attempt: no. of subjects [2]: 0
- Tooth impacted: no. of subjects [2]: 0
- Toothache: no. of subjects [2]: 0
- Total no. subjects with adverse events: % of subjects [2]: (48.1%)
- Total no. subjects with adverse events: no. of subjects [2]: 13
- Tremor: % of subjects [2]: (7.4%)
- Tremor: no. of subjects [2]: 2
- Upper respiratory tract infection: % of subjects [2]: (3.7%)
- Upper respiratory tract infection: no. of subjects [2]: 1
- Viral upper respiratory tract infection: no. of subjects [2]: 0
- Vomiting: % of subjects [2]: (3.7%)
- Vomiting: no. of subjects [2]: 1
- Vulvovaginal mycotic infection: % of subjects [2]: (3.7%)
- Vulvovaginal mycotic infection: no. of subjects [2]: 1
- 1 or more serious TEAE: % of subjects [3]: 11.4%
- 1 or more serious TEAE: no. of subjects [3]: 4
- Possibly related TEAE: % of subjects [3]: 82.9%
- Possibly related TEAE: no. of subjects [3]: 29
- TEAE leading to death: no. of subjects [3]: 0
- TEAE leading to drug withdrawn: % of subjects [3]: 14.3%
- TEAE leading to drug withdrawn: no. of subjects [3]: 5
- TEAE: % of subjects [3]: 94.3%
- TEAE: no. of subjects [3]: 33
- Agitation: % of subjects [4]: 2.9%
- Agitation: no. of subjects [4]: 1
- Depressive symptom: % of subjects [4]: 2.9%
- Depressive symptom: no. of subjects [4]: 1
- Psychiatric disorders: % of subjects [4]: 11.4%
- Psychiatric disorders: no. of subjects [4]: 4
- Suicidal ideation: % of subjects [4]: 5.7%
- Suicidal ideation: no. of subjects [4]: 2
- Total no. subjects with a serious TEAE: % of subjects [4]: 11.4%
- Total no. subjects with a serious TEAE: no. of subjects [4]: 4
- Cellulitis: no. of subjects [5]: 0
- Infections and infestations: no. of subjects [5]: 0
- Psychiatric disorders: % of subjects [5]: 3.7%
- Psychiatric disorders: no. of subjects [5]: 1
- Suicidal ideation: % of subjects [5]: 3.7%
- Suicidal ideation: no. of subjects [5]: 1
- Suicide attempt: no. of subjects [5]: 0
- Total no. subjects with a serious adverse event: % of subjects [5]: 3.7%
- Total no. subjects with a serious adverse event: no. of subjects [5]: 1
